Experimental data from patent publication US10105357B2, “Indication of antibiotic drugs for preparation of cancer inhibition pharmaceutical composition” (LAUNX BIOMEDICAL CO., LTD., priority 2014, dated 2018).
“And” between values parts separate entries of the source, which are not always exact repeats. Identical values can stand only once. Counter-ions that a name gives are not always drawn. Like-named read-outs stand apart in the source and are kept apart here.

Columns and labels:
cancer cell lines = experiment: Cell viability analysis (WST-1) on cancer cell lines; type: cell-based, human; conditions: drug 10 μM, 72 hours, WST-1; Table 3
[1] = test system: HI650 (Lung Adenocarcinoma); experiment: Cell viability analysis, lung cancer HI650; type: cell-based, human; conditions: Homo sapiens, NCI-H1650, 72 h
[2] = test system: A549 (Lung Adenocarcinoma); experiment: Cell viability analysis, lung cancer A549; type: cell-based, human; conditions: Homo sapiens, A549, 72 h
[3] = test system: AGS (Gastric Adenocarcinoma); experiment: Cell viability analysis, gastric cancer AGS; type: cell-based, human; conditions: Homo sapiens, 72 h
[4] = test system: MKN-45 (Gastric Adenocarcinoma); experiment: Cell viability analysis, gastric cancer MKN-45; type: cell-based, human; conditions: Homo sapiens, MKN-45, 72 h
[5] = test system: HepG2 (Hepatocellular Carcinoma); experiment: Cell viability analysis, hepatic cancer HepG2; type: cell-based, human; conditions: Homo sapiens, HepG2, 72 h
[6] = test system: Hep3B (hepatocellular carcinoma); experiment: Cell viability analysis, hepatic cancer Hep3B; type: cell-based, human; conditions: Homo sapiens, Hep3B, 72 h, read-out: The results of antibiotic drug inhibiting cancer cell lines (cell viability analysis), Hep3B
[7] = test system: LoVo (Colorectal Adenocarcinoma); experiment: Cell viability analysis, colon cancer LoVo; type: cell-based, human; conditions: Homo sapiens, LoVo, 72 h
[8] = test system: A375 (Amelanotic Melanoma); experiment: Cell viability analysis, skin cancer A375; type: cell-based, human; conditions: Homo sapiens, A-375, 72 h
[9] = test system: BCC (basal cell carcinoma); experiment: Cell viability analysis, skin cancer BCC; type: cell-based, human; conditions: Homo sapiens, 72 h, read-out: The results of antibiotic drug inhibiting cancer cell lines (cell viability analysis), BCC
[10] = test system: HeLa (Cervix Adenocarcinoma); experiment: Cell viability analysis, cervical cancer HeLa; type: cell-based, human; conditions: Homo sapiens, HeLa, 72 h
[11] = test system: C-33A (Cervical carcinoma); experiment: Cell viability analysis, cervical cancer C-33A; type: cell-based, human; conditions: Homo sapiens, C-33-A, 72 h, read-out: The results of antibiotic drug inhibiting cancer cell lines (cell viability analysis), C-33A
[12] = test system: TSGH-8301 (Urinary Bladder Carcinoma); experiment: Cell viability analysis, bladder cancer TSGH-8301; type: cell-based, human; conditions: Homo sapiens, 72 h
T24 = experiment: Cell viability analysis, bladder cancer T24; type: cell-based, human; conditions: Homo sapiens, T-24, 72 h, read-out: The results of antibiotic drug inhibiting cancer cell lines (cell viability analysis), T24
[13] = test system: MCF7 (Mammary Gland, Adenocarcinoma); experiment: Cell viability analysis, breast cancer MCF7; type: cell-based, human; conditions: Homo sapiens, MCF7, 72 h
[14] = test system: MDA-MB-231 (Mammary Gland, Adenocarcinoma); experiment: Cell viability analysis, breast cancer MDA-MB-231; type: cell-based, human; conditions: Homo sapiens, MDA-MB-231, 72 h, read-out: The results of antibiotic drug inhibiting cancer cell lines (cell viability analysis), MDA-MB231
AsPC-1 = experiment: Cell viability analysis, pancreatic cancer AsPC-1; type: cell-based, human; conditions: Homo sapiens, ASPC1, 72 h, read-out: The results of antibiotic drug inhibiting cancer cell lines (cell viability analysis), AsPC-1
NIH: OVCAR-3 = experiment: Cell viability analysis, ovarian cancer NIH: OVCAR-3; type: cell-based, human; conditions: Homo sapiens, OVCAR-3, 72 h, read-out: The results of antibiotic drug inhibiting cancer cell lines (cell viability analysis), NIH-OVCAR-3
TOV-21G = experiment: Cell viability analysis, ovarian cancer TOV-21G; type: cell-based, human; conditions: Homo sapiens, TOV21G, 72 h, read-out: The results of antibiotic drug inhibiting cancer cell lines (cell viability analysis), TOV-21G
[15] = test system: SAS (Tongue squamous cell carcinoma); experiment: Cell viability analysis, tongue cancer SAS; type: cell-based, human; conditions: Homo sapiens, 72 h, read-out: The results of antibiotic drug inhibiting cancer cell lines (cell viability analysis), SAS
U-2OS = experiment: Cell viability analysis, osteosarcoma U-2OS; type: cell-based, human; conditions: Homo sapiens, U2OS, 72 h, read-out: The results of antibiotic drug inhibiting cancer cell lines (cell viability analysis), U2OS
[16] = test system: 786-O (Renal adenocarcinoma); experiment: Cell viability analysis, renal cancer 786-O; type: cell-based, human; conditions: Homo sapiens, 786-0, 72 h, read-out: The results of antibiotic drug inhibiting cancer cell lines (cell viability analysis), 786-O
[17] = test system: HL-60 (Acute Promyelocytic Leukemia); experiment: Cell viability analysis, leukemia HL-60; type: cell-based, human; conditions: Homo sapiens, HL-60, 72 h, read-out: cell viability (survival rate), HL-60, drug 10 μM, 72 hours, WST-1, OD450 nm
[18] = test system: HCT116 (p53+) (Colorectal Carcinoma)

Q: With `CN(C)[C@@H]1C(O)=C(C(N)=O)C(=O)[C@@]2(O)C(O)=C3C(=O)c4c(O)cccc4[C@@](C)(O)[C@H]3C[C@@H]12` [Tetracycline HCl] as the molecule, how does the “inhibition effect on different cancer cell lines” value (cancer cell lines) read?
A: The value was “significant inhibition effect”.

Q: And the viability at 10 µM ([1]; read-out: The results of antibiotic drug inhibiting cancer cell lines (cell viability analysis), H1650, H1650, repeated experiment)?
A: The viability at 10 µM was 87.1%.

Q: What about the viability at 10 µM ([1]; read-out: cell viability (survival rate), H1650, drug 10 μM, 72 hours, WST-1, OD450 nm) of the same molecule?
A: Its viability at 10 µM is 41.1%.

Q: And the viability at 10 µM ([2]; read-out: The results of antibiotic drug inhibiting cancer cell lines (cell viability analysis), A549, A549, repeated experiment)?
A: The viability at 10 µM was 99.7%.

Q: And the viability at 10 µM ([2]; read-out: cell viability (survival rate), A549, drug 10 μM, 72 hours, WST-1, OD450 nm)?
A: The viability at 10 µM was 72.8%.

Q: What about the viability at 10 µM ([3]; read-out: The results of antibiotic drug inhibiting cancer cell lines (cell viability analysis), AGS, repeated experiment) of the same molecule?
A: The viability at 10 µM was 94%.

Q: What about the viability at 10 µM ([3]; read-out: cell viability (survival rate), AGS, drug 10 μM, 72 hours, WST-1, OD450 nm) of the same molecule?
A: Its viability at 10 µM is 88.2%.

Q: What about the viability at 10 µM ([4]; read-out: The results of antibiotic drug inhibiting cancer cell lines (cell viability analysis), MKN-45, MKN-45, repeated experiment) of the same molecule?
A: Its viability at 10 µM is 133%.

Q: What about the viability at 10 µM ([4]; read-out: cell viability (survival rate), MKN-45, drug 10 μM, 72 hours, WST-1, OD450 nm) of the same molecule?
A: The viability at 10 µM was 55.9%.

Q: What about the viability at 10 µM ([5]; read-out: The results of antibiotic drug inhibiting cancer cell lines (cell viability analysis), HepG2, HepG2, repeated experiment) of the same molecule?
A: The viability at 10 µM was 106%.

Q: What about the viability at 10 µM ([5]; read-out: cell viability (survival rate), HepG2, drug 10 μM, 72 hours, WST-1, OD450 nm) of the same molecule?
A: Its viability at 10 µM is 74.1%.

Q: What about the viability at 10 µM [6] of the same molecule?
A: Its viability at 10 µM is 92.2%.

Q: What about the viability at 10 µM ([7]; read-out: The results of antibiotic drug inhibiting cancer cell lines (cell viability analysis), LoVo, repeated experiment) of the same molecule?
A: Its viability at 10 µM is 92%.

Q: And the viability at 10 µM ([7]; read-out: cell viability (survival rate), LoVo, drug 10 μM, 72 hours, WST-1, OD450 nm)?
A: The viability at 10 µM was 71.8%.

Q: And the viability at 10 µM ([8]; read-out: The results of antibiotic drug inhibiting cancer cell lines (cell viability analysis), A375, A375, repeated experiment)?
A: The viability at 10 µM was 82.8%.

Q: What about the viability at 10 µM ([8]; read-out: cell viability (survival rate), A375, drug 10 μM, 72 hours, WST-1, OD450 nm) of the same molecule?
A: The viability at 10 µM was 74.1%.

Q: And the viability at 10 µM [9]?
A: Its viability at 10 µM is 100%.

Q: What about the viability at 10 µM ([10]; read-out: The results of antibiotic drug inhibiting cancer cell lines (cell viability analysis), HeLa, repeated experiment) of the same molecule?
A: The viability at 10 µM was 79%.

Q: And the viability at 10 µM ([10]; read-out: cell viability (survival rate), HeLa, drug 10 μM, 72 hours, WST-1, OD450 nm)?
A: Its viability at 10 µM is 96.1%.

Q: What about the viability at 10 µM [11] of the same molecule?
A: Its viability at 10 µM is 103%.

Q: And the viability at 10 µM ([12]; read-out: The results of antibiotic drug inhibiting cancer cell lines (cell viability analysis), TSGH-8301, TSGH-8301, repeated experiment)?
A: The viability at 10 µM was 103%.

Q: And the viability at 10 µM ([12]; read-out: cell viability (survival rate), TSGH, drug 10 μM, 72 hours, WST-1, OD450 nm)?
A: Its viability at 10 µM is 34.1%.

Q: And the viability at 10 µM (T24)?
A: The viability at 10 µM was 130%.

Q: What about the viability at 10 µM ([13]; read-out: The results of antibiotic drug inhibiting cancer cell lines (cell viability analysis), MCF-7, MCF-7, repeated experiment) of the same molecule?
A: The viability at 10 µM was 93.1%.

Q: And the viability at 10 µM ([13]; read-out: cell viability (survival rate), MCF7, drug 10 μM, 72 hours, WST-1, OD450 nm)?
A: The viability at 10 µM was 75.9%.

Q: And the viability at 10 µM [14]?
A: The viability at 10 µM was 88.1%.

Q: And the viability at 10 µM (AsPC-1)?
A: Its viability at 10 µM is 96.7%.

Q: What about the viability at 10 µM (NIH: OVCAR-3) of the same molecule?
A: The viability at 10 µM was 104%.

Q: And the viability at 10 µM (TOV-21G)?
A: The viability at 10 µM was 81.9%.

Q: What about the viability at 10 µM [15] of the same molecule?
A: The viability at 10 µM was 79.2%.

Q: What about the viability at 10 µM (U-2OS) of the same molecule?
A: The viability at 10 µM was 53.3%.

Q: What about the viability at 10 µM [16] of the same molecule?
A: The viability at 10 µM was 99.9%.

Q: And the viability at 10 µM [17]?
A: Its viability at 10 µM is 93.7%.

Q: What about the viability [18] of the same molecule?
A: Its viability is 115% and 114%.
